Experimental data as given in patent US8293781B2, “Indole derivatives having cPLA2 inhibiting activity and applications and production methods of the same” (Daiichi Sankyo Company, Limited, priority 2007, dated 2012).
Counter-ions that a name gives are not always drawn.

How the values were obtained:
[1] = tested on: LTB4 production in rat mast cell like cell line RBL-2H3; assay: Calcium ionophore-induced LTB4 production system using RBL-2H3; type: cell-based; settings: 1 h, RBL-2H3, A23187 5 μM, one hour
Method: (§1) For the evaluation by LTB4 and Cys-LTs production inhibiting activity, the calcium ionophore-induced LTB4 and Cys-LTs production system using the rat mast cell like cell line RBL-2H3 with reference to the method of Ishiwara et al. (see Ishiwara M. et al., J Pharmacol Exp Ther 307: 583, 2003) was used. That is, rat mast cell like cell line RBL-2H3 cells were suspended in Dulbecco's modified Eagle's medium (Nacalai Tesque) containing 10% bovine fetal serum (BioWhittaker) and 10 μg/ml gentamycin (Invitrogen). The infiltrating cell suspension 200 μl containing 1×10^5 cells per well was inoculated to 96-well culture plate and cultured over night under conditions of 5% CO2 and 37° C. The culture supernatant was removed, then the test compound solution or solvent 50 μl was added. After 30 minutes preculture, calcium ionophore (A23187) was added to a final concentration of 5 μM to induce leukotriene production.
(§2) One hour after calcium ionophore stimulus, the culture supernatant was recovered and the amounts of LTB4 and Cys-LTs in the supernatant were measured using an EIA kit (made by Amersham). Based on the measurement values, the test compound concentrations suppressing 50% of the mediator production at the time of non-addition of a compound (IC50 value) were calculated.

[2] = tested on: TPA-induced mouse dermatitis model; assay: TPA-induced mouse dermatitis model (ear thickness); type: in vivo; settings: 50 mg/kg orally 30 minutes before TPA, 6 hours after TPA, C57BL/6 mice
Method: Phorbol ester (TPA) was applied to the ear to elicite acute inflammation having ear edema as a main symptom. In the present test model, it is known that arachidonic acid metabolites, constituting various lipid mediators, are involved in inflammation. By this Experiment, it is possible to evaluate the anti-inflammatory action in vivo of anti-inflammatory drugs acting on the arachidonic acid cascade.
The Experiment was performed with reference to the method of Chang et al. (see Chang J., Eur J Pharmacol 142: 197, 1987). That is, the ear of female C57BL/6 mice (Charles River Japan) were painted with 20 μl of TPA in an acetone solution (concentration 50 μg/ml) to induce dermatitis at the ear. The ear thicknesses before application of TPA and 6 hours after application of TPA were measured using a dial gauge and the increase in ear thickness caused by inflammation was calculated. The test compound or the 0.5% hydroxypropyl cellulose solution as vehicle was administered orally to the mice 30 minutes before application of TPA. Note that the number of mice used in the test was made six per group.
Based on the measurement value, the action of each test compound in suppressing the increase in ear thickness due to application of TPA was evaluated.

[3] = tested on: PGD2 production in rat mast cell like cell line RBL-2H3; assay: Antigen-induced PGD2 production system using RBL-2H3 sensitized by DNP specific IgE; type: cell-based; settings: 0.5 h, RBL-2H3, anti-DNP-IgE sensitized, antigen 10 μg/ml, 30 minutes
Method: To evaluate the PGD2 production inhibiting activity, the antigen-induced PGD2 production system using rat mast cell like cell line RBL-2H3 sensitized by a dinitrophenol (DNP) specific IgE with reference to the method of Yamashita et al. (see Yamashita, M. et al., Br J Pharmacol 129: 367, 2000) was used. That is, rat mast cell like cell line RBL-2H3 cells were suspended in a Dulbecco's modified Eagle's medium (Nacalai Tesque) containing 10% bovine fetal serum (BioWhittaker) and 10 μg/ml gentamycin (Invitrogen). The infiltrating cell suspension 200 μl containing 1×10^5 cells per well was inoculated to 96-well culture plate and cultured over night under conditions of 5% CO2 and 37° C. The culture supernatant was removed, then the suspension was cultured for 2 hours in the presence of an anti-DNP-IgE antibody (1 μg/ml) for 2 hours to sensitize it. After the sensitization, the supernatant was removed and the test compound solution or solvent was added. The resultant product was precultured for 30 minutes, then 10 μg/ml of antigen (DNP-human serum albumin conjugate) was added to elicite PGD2 production.
30 minutes after antigen stimulus, the culture supernatant was recovered and the amount of PGD2 in the supernatant was measured using an EIA kit (made by Cayman). Based on the measurement value, the test compound concentration (IC50 value) suppressing the amount of PGD2 production at the time of nonaddition of the compound by 50% was calculated.

[4] = target: T1, cPLA2 crudely purified from the cytoplasm fraction of U937 (Homo sapiens, UniProt P47712); assay: Measurement of cPLA2 inhibitory activity (release of [14C]-arachidonic acid from phosphatidyl choline liposome); type: biochemical; settings: cPLA2 from U937 cytoplasm fraction, [14C]arachidonyl-phosphatidyl choline liposome, 37° C., 60 minutes; read-out: cPLA2 inhibitory activity, 50% inhibiting concentration IC50
T1 construct: cPLA2 crudely purified from the cytoplasm fraction of U937; endogenous in cells; host or cells: U937 cells (cytoplasm fraction, crude purification)
T1 sequence (P47712 1-749): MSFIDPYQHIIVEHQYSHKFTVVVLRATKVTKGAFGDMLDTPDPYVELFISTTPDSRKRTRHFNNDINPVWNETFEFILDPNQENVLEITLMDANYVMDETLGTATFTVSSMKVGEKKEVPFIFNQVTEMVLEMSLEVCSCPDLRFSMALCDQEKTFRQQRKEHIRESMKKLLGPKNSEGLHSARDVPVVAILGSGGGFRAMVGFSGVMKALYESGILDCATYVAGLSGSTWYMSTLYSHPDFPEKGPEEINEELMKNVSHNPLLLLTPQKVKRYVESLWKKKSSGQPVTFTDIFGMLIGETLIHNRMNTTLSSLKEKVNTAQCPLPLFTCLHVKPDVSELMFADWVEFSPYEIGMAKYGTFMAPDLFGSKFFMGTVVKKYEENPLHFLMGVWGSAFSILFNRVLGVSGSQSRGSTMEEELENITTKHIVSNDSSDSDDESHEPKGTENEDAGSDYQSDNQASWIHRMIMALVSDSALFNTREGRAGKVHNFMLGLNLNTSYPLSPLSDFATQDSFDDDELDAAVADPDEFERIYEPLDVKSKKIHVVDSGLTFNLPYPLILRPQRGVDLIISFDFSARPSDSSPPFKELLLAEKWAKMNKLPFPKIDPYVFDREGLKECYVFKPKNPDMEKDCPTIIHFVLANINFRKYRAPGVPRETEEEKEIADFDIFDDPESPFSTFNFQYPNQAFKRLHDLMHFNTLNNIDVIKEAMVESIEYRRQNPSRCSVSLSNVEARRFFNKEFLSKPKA
How it was run: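 The read-out is radioactivity from extracted [14C]-arachidonic acid, freed over 60 min at 37° C from liposomes of 14C-arachidonyl phosphatidylcholine (10 μM PC in the added solution). Buffer was 50 mM HEPES pH 7.5 with Ca2+, DTT, NaCl and BSA. IC50 was derived from inhibition relative to enzyme control minus no-enzyme control.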

[5] = tested on: Cys-LTs production in rat mast cell like cell line RBL-2H3; assay: Calcium ionophore-induced Cys-LTs production system using RBL-2H3; type: cell-based; settings: 1 h, RBL-2H3, A23187 5 μM, one hour
Method: as §1, §2

IC50 [1]: 630 nM
IC50 [4]: 141 nM
IC50 [5]: 1380 nM
SMILES: O=C(O)CCc1ccc2c(c1)c(CCc1ccccc1)cn2-c1ccc(OC(F)(F)F)cc1 [Example 193, 3-{3-(2-phenylethyl)-1-[4-(trifluoromethoxy)phenyl]-1H-indol-5-yl}propanoic acid 2-amino-2-(hydroxymethyl)propane-1,3-diol salt (1:1)]
Suppression rate of increase in ear thickness [2]: 19.4%
IC50 [3]: 820 nM
